Source: US20070128217A1 (priority 2003, published 2007)

Assays:
[1] = test system: antibodies in sera from SARS patients (sera 1a, 1b, 2, 6, 37, 62, London, SARS-yellow, SARS-green); assay type: binding, human; design: Binding of serum 6 to linear peptides of protein X1 of SARS-CoV Urbani / Binding of serum 37 to linear peptides of protein X1 of SARS-CoV Urbani / Binding of serum 6 to looped/cyclic peptide (PEPSCAN-ELISA) / Binding of serum 37 to looped/cyclic peptide (PEPSCAN-ELISA) / Binding of serum 37 to looped/cyclic peptides of protein X1 of SARS-CoV Urbani / Binding of serum 6 to linear peptides of protein X2 / Binding of serum 37 to linear peptides of protein X2 / Binding of serum 37 to looped/cyclic peptides of protein X2 of SARS-CoV Urbani / Binding of serum 6 to linear peptides of protein M of SARS-CoV Urbani / Binding of serum 37 to linear peptides of protein M of SARS-CoV Urbani / Binding of serum 6 to looped/cyclic peptides of protein M of SARS-CoV Urbani / Binding of serum 37 to looped/cyclic peptides of protein M of SARS-CoV Urbani / Binding of serum 6 to linear peptides of protein X3 of SARS-CoV Urbani / Binding of serum 37 to linear peptides of protein X3 of SARS-CoV Urbani / Binding of serum 37 to looped/cyclic peptides of protein X3 of SARS-CoV Urbani / Binding of serum 6 to linear peptides of protein X4 of SARS-CoV Urbani / Binding of serum 37 to linear peptides of protein X4 of SARS-CoV Urbani / Binding of serum 37 to looped/cyclic peptides of protein X4 of SARS-CoV Urbani / Binding of serum 6 to linear peptides of protein X5 of SARS-CoV Urbani / Binding of serum 37 to linear peptides of protein X5 of SARS-CoV Urbani / Binding of serum 37 to looped/cyclic peptides of protein X5 of SARS-CoV Urbani / Binding of serum 6 to linear peptides of protein N of SARS-CoV Urbani / Binding of serum 37 to linear peptides of protein N of SARS-CoV Urbani / Binding of serum 6 to linear peptide (PEPSCAN-ELISA) / Binding of serum 1a to looped/cyclic peptides of protein N of SARS-CoV Urbani / Binding of serum 1b to looped/cyclic peptides of protein N of SARS-CoV Urbani / Binding of serum 2 to looped/cyclic peptides of protein N of SARS-CoV Urbani / Binding of serum 6 to looped/cyclic peptides of protein N of SARS-CoV Urbani / Binding of serum 37 to looped/cyclic peptides of protein N of SARS-CoV Urbani / Binding of serum 62 to looped/cyclic peptides of protein N of SARS-CoV Urbani / Binding of serum London to looped/cyclic peptides of protein N of SARS-CoV Urbani / Binding of serum SARS-green to looped/cyclic peptides of protein N of SARS-CoV Urbani: unit not given here
[2] = test system: control sera (pooled serum of ten healthy LUMC hospital workers; commercial negative donor pooled serum from the Dutch bloodbank); assay type: binding, human; design: Binding of Control serum LUMC to linear peptides / Binding of Control serum Blood-bank to linear peptides / Binding of Control serum LUMC to looped peptides / Binding of Control Serum Blood-Bank to Looped peptides / Binding of Control serum LUMC to linear peptides of the protein M of SARS-CoV Urbani / Binding of Control serum Blood-bank to linear peptides of the protein M of SARS-CoV Urbani / Binding of Control serum LUMC to looped peptides of the protein M of SARS-CoV Urbani / Binding of Control Serum Blood-Bank to Looped peptides of the protein M of SARS-CoV Urbani: unit not given here
[3] = test system: rabbit serum obtained by immunizing a rabbit with the SARS-CoV strain Frankfurt 1; assay type: binding; design: Binding of a rabbit serum to linear peptides / Binding of a rabbit serum to looped peptides / Rabbit serum linear peptides / Rabbit serum looped peptides / Binding of a rabbit serum to linear peptides of protein N of SARS-CoV Urbani (Rabbit serum linear peptides) / Binding of a rabbit serum to looped/cyclic peptides of protein N of SARS-CoV Urbani (Rabbit serum looped peptides): unit not given here
[4] = test system: recombinant human anti-SARS-CoV antibody 03-018; assay type: binding; design: Binding of antibody 03-018 to linear peptides of the N protein of SARS-CoV Urbani / Binding of antibody 03-018 to looped/cyclic peptides of the N protein of SARS-CoV Urbani: unit not given here

| Sequence | Binding of serum 1a to looped/cyclic peptides of protein N of SARS-CoV Urbani [1] | Binding of serum 1b to looped/cyclic peptides of protein N of SARS-CoV Urbani [1] | Binding of serum 2 to looped/cyclic peptides of protein N of SARS-CoV Urbani [1] | Binding of serum 6 to looped/cyclic peptides of protein N of SARS-CoV Urbani [1] | Binding of serum 37 to looped/cyclic peptides of protein N of SARS-CoV Urbani [1] | Binding of serum 62 to looped/cyclic peptides of protein N of SARS-CoV Urbani [1] | Binding of serum London to looped/cyclic peptides of protein N of SARS-CoV Urbani [1] | Binding of serum SARS-green to looped/cyclic peptides of protein N of SARS-CoV Urbani [1] | Binding of serum SARS-yellow to looped/cyclic peptides of protein N of SARS-CoV Urbani [1] | Binding of Control Serum Blood-Bank to Looped peptides [2] | Binding of Control serum Blood-bank to linear peptides [2] | Binding of Control serum LUMC to linear peptides [2] | Binding of Control serum LUMC to looped peptides [2] | Binding of a rabbit serum to linear peptides of protein N of SARS-CoV Urbani (Rabbit serum linear peptides) [3] | Binding of a rabbit serum to looped/cyclic peptides of protein N of SARS-CoV Urbani (Rabbit serum looped peptides) [3] | Binding of antibody 03-018 to linear peptides of the N protein of SARS-CoV Urbani [4] | Binding of antibody 03-018 to looped/cyclic peptides of the N protein of SARS-CoV Urbani [4] | further results |
| --- | --- | --- | --- | --- | --- | --- | --- | --- | --- | --- | --- | --- | --- | --- | --- | --- | --- | --- |
| QNGGRNGARPKQRRP | 0.3 | 0.1 | 0.3 | 0.2 | 0.6 | 0.4 | 0.3 | 0.6 | 0.5 | 0.6 | 0.6 | 0.8 | 0.8 | 0.2 | 0.4 | 0.2 | 0.3 | Binding of serum 1a to linear peptides of protein N of SARS-CoV Urbani [1]: 0.2; Binding of serum 1b to linear peptides of protein N of SARS-CoV Urbani [1]: 0.1; Binding of serum 2 to linear peptides of protein N of SARS-CoV Urbani [1]: 0.3; Binding of serum 6 to linear peptides of protein N of SARS-CoV Urbani [1]: 0.2; Binding of serum 37 to linear peptides of protein N of SARS-CoV Urbani [1]: 0.7; Binding of serum 62 to linear peptides of protein N of SARS-CoV Urbani [1]: 0.8; Binding of serum London to linear peptides of protein N of SARS-CoV Urbani [1]: 0.5; Binding of serum SARS-green to linear peptides of protein N of SARS-CoV Urbani [1]: 0.5; Binding of serum SARS-yellow to linear peptides of protein N of SARS-CoV Urbani [1]: 0.7 |
| GGSQASSRSSSRSRG | 0.3 | 0.2 | 0.4 | 0.4 | 0.5 | 0.4 | 0.4 | 0.0 | 0.3 | 0.6 | 0.7 | 0.8 | 0.6 | 0.2 | 0.5 | 0.1 | 0.2 | Binding of serum 1a to linear peptide (PEPSCAN-ELISA) [1]: 0.3; Binding of serum 1b to linear peptide (PEPSCAN-ELISA) [1]: 0.1; Binding of serum 2 to linear peptide (PEPSCAN-ELISA) [1]: 0.3; Binding of serum 6 to linear peptide (PEPSCAN-ELISA) [1]: 0.4; Binding of serum 37 to linear peptide (PEPSCAN-ELISA) [1]: 0.7; Binding of serum 62 to linear peptide (PEPSCAN-ELISA) [1]: 0.7; Binding of serum London to linear peptide (PEPSCAN-ELISA) [1]: 0.5; Binding of serum SARS-green to linear peptide (PEPSCAN-ELISA) [1]: 0.7; Binding of serum SARS-yellow to linear peptide (PEPSCAN-ELISA) [1]: 0.9 |
